# Assay results: patent publication US20260049078A1, “DIFLUORO- AND TRIFLUORO-ACETYL HYDRAZIDES AS SELECTIVE HDAC6 INHIBITORS” (ITALFARMACO S.P.A., priority 2022, published 2026)
# How the values were obtained:
# [1] = system: human B cell precursor leukemia 697; test: In vitro α-tubulin acetylation in 697 cell line; assay type: cell-based; conditions: Homo sapiens, B-cell, 16 h; read-out: TubAc 697 cells EC50
# Experimental: The in vitro α-tubulin acetylation was evaluated on human B cell precursor leukemia 697.
# The 697 cells were maintained in RPMI Medium 1640 (Gibco, cat: 21875-034) supplemented with 10 mM HEPES (Gibco, cat: 15630-080), Pen-Strep (Penicillin 100 U/ml, Streptomycin 100 μg/ml, Gibco, cat: 15140-122) and 10% fetal bovine serum (Gibco, cat: 10270-106).
# The cells were plated in 12-well plates (Costar, cat: 3512) at the density of 5.5×10^5 cells/ml.
# Serial dilutions of test compounds in DMSO were prepared using 20 mM stock solutions to obtain 8 doses 200× concentrated in respect to final doses (2.7-100000 nM). Then the DMSO solutions were diluted 10× in culture medium to obtain 20× concentrated solutions which were used for cells treatment (125 μl of medium solutions were added to 2.375 ml of cells suspension). The final DMSO content was set as 0.5%. The plates were incubated at 37° C., 5% CO2 for 16 hours.
# At the end of the incubation period, the cells were harvested and centrifuged for 5 minutes at 200×g and washed with 0.9% NaCl at 4° C. The resulting pellet was treated for 30 minutes at 4° C. with 100 μl Complete Lysis-M buffer containing protease inhibitors (Complete Lysis-M Roche+Complete Tablets, Mini Easypack, cat: 4719956001) and phosphatase inhibitor cocktails (PhosStop Easypack, Roche, cat: 4906837001) and then centrifuged 10 minutes at 18213×g. The protein concentration in each supernatant was determined using BCA Protein Assay Kit (Pierce, cat: 23227). The samples were diluted in PBS 1× to obtain 2 μg/ml concentration and coated in MaxiSorp 96-well plates (Nunc, cat: 442404). The plates were incubated overnight at room temperature.
# Plates were washed twice with Wash Buffer (PBS 1×+0.005% tween 20) and saturated for 1 hour at room temperature with 300 μL of 1×PBS containing 10% FBS. After washing twice with Wash Buffer, the plates were incubated for 2 hours at room temperature in the presence of 100 μl/well either anti-acetylated-α-tubulin antibody (Monoclonal Anti-Tubulin, Acetylated antibody produced in mouse, Sigma-Aldrich, cat: T6793) or total anti-α-tubulin antibody (Monoclonal Anti-α-Tubulin produced in mouse, Sigma-Aldrich, cat: T6074) diluted 1:1000 in 1×PBS containing 10% FBS. Following 5 washing cycles with Wash Buffer the secondary antibody conjugated with the enzyme HRP (Goat anti-Mouse IgG, IgM, IgA (H+L), stock concentration 0.5 mg/ml, Thermo Fisher Scientific, cat: A10668), diluted 1:1000 in 1×PBS+10% FBS was added at the volume of 100 μl/well. After two hours of incubation at room temperature the plates were washed 4 times with Wash Buffer, then 100 μl/well of TMB substrate (TMB substrate kit, Thermo Fisher Scientific, cat: 34021) was added for 10 minutes at room temperature in the dark. The reaction was stopped by adding 50 μl of 2M H2SO4. The plates were read in BioTek Synergy H1 multimode microplate reader at a wavelength of 450 nm.
# The measured absorbance was corrected by subtracting the mean of blank values (samples without the primary antibody). The absorbance ratios of acetyl to total tubulin assays were calculated and normalized to the reference compound (positive control) 4 parameter logistic curve, where 0% is the fitted bottom and 100% is the fitted top of the curve. The results are expressed as relative EC50.
# [2] = biological target: recombinant human HDAC6 (Homo sapiens (Human), UniProt Q9UBN7); test: Enzyme inhibitory activity assay on HDAC6; assay type: biochemical; conditions: 30 minutes preincubation at 25° C.
# Experimental: (§1) For each test compound, 100× concentrated DMSO solutions at 8 doses were prepared and then diluted in assay buffer (25 mM Tris-HCl, pH 8, 130 mM NaCl, 0.05% Tween-20, 10% Glycerol) to obtain 5× concentrated solutions in relation to the final concentrations (typical final concentration range—6.4-200000 nM or 0.18-50000 nM, final DMSO content—1%). Then 10 μL solution of each test compound concentration were placed on a 96-well plate in triplicate and 15 μL of 3.33× concentrated enzyme solution in the assay buffer containing 3.33× concentrated BSA (final BSA concentration 1 mg/mL) and, in case of HDAC6, 3.33× concentrated TCEP (final TCEP concentration—200 μM) were added to each well. After a period of preincubation at 25° C. (30 minutes for HDAC6 and 120 minutes for HDAC1), 25 μL of solution containing the substrate were added. As substrate, FLUOR DE LYS® deacetylase substrate (Enzo Life Sciences, cat: BML-KI104, FdL), FLUOR DE LYS®-Green substrate (Enzo Life Sciences, cat: BML-KI572, FdL_G) or Boc-Lys(Tfa)-AMC (Bachem, cat: 4060676.005, Tfal)—2× concentrated solution in assay buffer were used. Following a reaction period (30 minutes at 25° C.), 50 μL of the development solution consisting of concentrate FLUOR DE LYS® developer I (Enzo Life Sciences, ca: BML-KI105), diluted 200 times in buffer (50 mM Tris-HCl, pH 8, 137 mM NaCl, 2.7 mM KCl, 1 mM MgCl2) plus 2 μM TSA was added and, after 25 minutes at room temperature in the dark, using the Victor 1420 Multilabel Counter Perkin Elmer Wallac instrument, the fluorescence reading was carried out (excitation/emission: 485/535 nM—Fluor de Lys Green, 355/460 nM—Tfal, Fluor de Lys).
# (§2) Enzymatic activity on recombinant human HDAC6 and HDAC1 was evaluated (Table 2) for each synthesized compound.
# [3] = biological target: recombinant human HDAC1 (Homo sapiens (Human), UniProt Q13547); test: Enzyme inhibitory activity assay on HDAC1; assay type: biochemical; conditions: 120 minutes preincubation at 25° C.
# Experimental: as §1, §2
# [4] = system: HDAC6; test: Kinetic of prodrug disappearing when incubated with HDAC6 (LC-HRMS); assay type: biochemical; conditions: HDAC6 1 μM, 5 μM compound, 25° C.; for half-life at 5 µM: HDAC6 enzyme in assay buffer, read-out: T1/2 of prodrug disappearing
# Experimental: The LC-HRMS analysis was carried out using a Vanquish Flex UHPLC (Thermo Fisher Scientific) and a high-resolution mass spectrometer Orbitrap QExactive Focus (Thermo Fisher Scientific), equipped with a Heated Electrospray Ionization, operated in positive mode. A Full Scan analysis was set in the m/z range 50-500 amu. A XSelect HSS T3 50×2.1 mm, 2.5 μm chromatographic column (Waters) was used. Mobile phase A consisted of 0.1% formic acid in water and mobile phase B in 0.1% formic acid in acetonitrile. The flow rate was set to 0.5 mL/min, with a gradient program from 3 to 20% B in 3 minutes.
# Chain of recombinant human HDAC6 (Q9UBN7 whole entry): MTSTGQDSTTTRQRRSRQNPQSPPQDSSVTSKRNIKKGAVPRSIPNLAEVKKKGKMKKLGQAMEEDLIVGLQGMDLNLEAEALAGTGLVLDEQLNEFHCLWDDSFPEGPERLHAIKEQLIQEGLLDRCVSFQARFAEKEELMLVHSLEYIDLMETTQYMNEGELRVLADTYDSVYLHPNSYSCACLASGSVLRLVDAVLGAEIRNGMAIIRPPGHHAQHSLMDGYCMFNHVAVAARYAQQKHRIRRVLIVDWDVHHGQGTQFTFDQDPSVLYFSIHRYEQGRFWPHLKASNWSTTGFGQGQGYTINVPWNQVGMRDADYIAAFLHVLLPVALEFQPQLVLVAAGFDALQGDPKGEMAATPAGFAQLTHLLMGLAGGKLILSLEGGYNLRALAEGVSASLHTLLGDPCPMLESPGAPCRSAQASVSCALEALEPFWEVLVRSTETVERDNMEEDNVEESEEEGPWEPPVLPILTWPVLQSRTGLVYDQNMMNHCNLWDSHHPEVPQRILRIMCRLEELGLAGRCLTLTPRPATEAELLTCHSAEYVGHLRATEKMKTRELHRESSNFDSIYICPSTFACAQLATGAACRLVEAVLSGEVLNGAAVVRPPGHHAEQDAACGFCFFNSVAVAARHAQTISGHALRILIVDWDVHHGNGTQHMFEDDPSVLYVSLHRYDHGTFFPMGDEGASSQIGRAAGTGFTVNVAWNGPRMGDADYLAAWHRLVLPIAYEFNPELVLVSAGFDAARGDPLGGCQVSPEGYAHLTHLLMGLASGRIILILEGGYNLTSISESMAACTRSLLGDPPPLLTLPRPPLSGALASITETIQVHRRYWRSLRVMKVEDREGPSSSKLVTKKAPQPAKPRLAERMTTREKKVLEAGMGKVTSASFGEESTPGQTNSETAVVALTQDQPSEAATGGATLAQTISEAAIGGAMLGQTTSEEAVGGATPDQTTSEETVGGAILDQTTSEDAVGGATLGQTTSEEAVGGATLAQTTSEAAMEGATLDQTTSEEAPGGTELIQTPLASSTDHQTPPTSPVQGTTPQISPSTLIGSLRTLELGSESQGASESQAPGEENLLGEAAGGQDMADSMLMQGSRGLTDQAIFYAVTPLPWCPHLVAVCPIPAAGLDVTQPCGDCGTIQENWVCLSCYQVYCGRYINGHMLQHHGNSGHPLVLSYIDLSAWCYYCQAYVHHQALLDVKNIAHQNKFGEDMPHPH
# Chain of recombinant human HDAC1 (Q13547 whole entry): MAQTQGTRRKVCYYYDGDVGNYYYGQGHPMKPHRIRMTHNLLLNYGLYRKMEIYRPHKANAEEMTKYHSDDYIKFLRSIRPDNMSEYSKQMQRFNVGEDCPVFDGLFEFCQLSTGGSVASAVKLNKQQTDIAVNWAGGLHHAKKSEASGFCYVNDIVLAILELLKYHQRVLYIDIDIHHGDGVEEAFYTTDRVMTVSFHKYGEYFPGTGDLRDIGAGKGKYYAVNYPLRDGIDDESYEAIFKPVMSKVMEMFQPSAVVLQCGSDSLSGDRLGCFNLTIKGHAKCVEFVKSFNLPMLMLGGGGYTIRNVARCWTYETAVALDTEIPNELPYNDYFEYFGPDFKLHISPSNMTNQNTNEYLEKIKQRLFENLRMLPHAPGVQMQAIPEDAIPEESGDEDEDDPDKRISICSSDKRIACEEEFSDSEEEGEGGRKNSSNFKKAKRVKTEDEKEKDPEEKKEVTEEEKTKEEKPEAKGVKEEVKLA
Structure (SMILES),EC50 [1] [nM],IC50 [2] [nM],IC50 [3] [nM],half-life at 5 µM [4] [min],also measured
Cc1ccc(-c2cn(Cc3ccc(-c4nnc(C(F)F)o4)cn3)nn2)cc1 [Compound 8-A],419,65,> 100000,–,–
Cc1cccc(-c2cn(Cc3ccc(-c4nnc(C(F)F)o4)cn3)nn2)c1 [Compound 9-A],385,40,> 100000,–,–
CC(=O)Nc1cccc(-c2cn(Cc3ccc(-c4nnc(C(F)F)o4)cc3F)nn2)c1 [Compound 12-A],346,57,> 100000,–,–
Fc1cc(-c2nnc(C(F)F)o2)cnc1Cn1cc(-c2ccccn2)nn1 [Compound 15-A],–,100,> 100000,–,–
FC(F)c1nnc(-c2ccc(Cn3nnc(-c4ccccc4)n3)nc2)o1 [Compound 16-A],1090,40,> 100000,–,–
FC(F)c1nnc(-c2ccc(Cn3nnc(-c4cccs4)n3)nc2)o1 [Compound 17-A],648,41,> 100000,–,–
Fc1cccc(-c2cn(Cc3ccc(-c4nnc(C(F)F)o4)cn3)nn2)c1 [Compound 18-A],582,56,> 100000,–,–
FC(F)c1nnc(-c2ccc(Cn3cc(-c4cccs4)nn3)nc2)o1 [Compound 19-A],579,31,> 100000,–,–
FC(F)c1nnc(-c2ccc(Cn3cc(-c4ccc5[nH]ccc5c4)nn3)nc2)o1 [Compound 27-A],119,15,> 100000,–,–
"CC(c1ccc(-c2nnc(C(F)F)o2)cc1F)n1cc(-c2ccc3nc(N)sc3c2)nn1 (stereo not drawn) [Compound 30-A, 6-(1-(1-(4-(5-(difluoromethyl)-1,3,4-oxadiazol-2-yl)-2-fluorophenyl)ethyl)-1H-1,2,3-triazol-4-yl)benzo[d]thiazol-2-amine]",1390,–,–,–,–
Nc1nc2ccc(-c3cn(Cc4ccc(-c5nnc(C(F)F)o5)c(Cl)c4)nn3)cc2s1 [Compound 31-A],–,–,–,129,–
FC(F)c1nnc(-c2ccc(Cn3cc(-c4cccc5[nH]ncc45)nn3)nc2)o1 [Compound 34-A],167,20,> 100000,–,–
Fc1cc(-c2nnc(C(F)F)o2)ccc1Cn1cc(-c2cccc3[nH]ccc23)nn1 [Compound 36-A],167,54,> 100000,–,–
Fc1cc(-c2nnc(C(F)F)o2)cnc1Cn1cc(-c2cccc3[nH]ccc23)nn1 [Compound 40-A],849,44,> 100000,–,–
Nc1ccc(-c2cn(Cc3c(F)cc(-c4nnc(C(F)(F)F)o4)cc3F)nn2)cn1 [Compound 42-A],–,–,–,40.5,–
Nc1ccc(-c2cn(Cc3ccc(-c4nnc(C(F)(F)F)o4)cc3F)nn2)cn1 [Compound 43-A],–,–,–,23.1,–
Nc1ccc(-c2cn(Cc3ccc(-c4nnc(C(F)(F)F)o4)c(F)c3)nn2)cn1 [Compound 44-A],–,–,–,11.3,–
Nc1ccc(-c2cn(Cc3ccc(-c4nnc(C(F)F)o4)cc3)nn2)cn1 [Compound 45-A],664,26,> 100000,113,percentage of compound concentration (prodrug remaining) ([4]; time 0 min): 100.00%; percentage of compound concentration (prodrug remaining) ([4]; time 30 min): 79.9%; percentage of compound concentration (prodrug remaining) ([4]; time 60 min): 73.7%; percentage of compound concentration (prodrug remaining) ([4]; time 120 min): 47.8%; percentage of compound concentration (prodrug remaining) ([4]; time 240 min): 22.6%; percentage of compound concentration (prodrug remaining) ([4]; time 360 min): 11.6%; percentage of compound concentration (prodrug remaining) ([4]; time 480 min): 5.2%
Nc1ccc(-c2cn(Cc3c(F)cc(-c4nnc(C(F)F)o4)cc3F)nn2)cn1 [Compound 46-A],788,–,> 100000,22.9,percentage of compound concentration (prodrug remaining) ([4]; time 0 min): 100.00%; percentage of compound concentration (prodrug remaining) ([4]; time 30 min): 42.4%; percentage of compound concentration (prodrug remaining) ([4]; time 60 min): 17.4%; percentage of compound concentration (prodrug remaining) ([4]; time 120 min): 2.7%; percentage of compound concentration (prodrug remaining) ([4]; time 240 min): 0.0%; percentage of compound concentration (prodrug remaining) ([4]; time 360 min): 0.0%; percentage of compound concentration (prodrug remaining) ([4]; time 480 min): 0.0%
Nc1ccc(-c2cn(Cc3ccc(-c4nnc(C(F)F)o4)cc3F)nn2)cn1 [Compound 47-A],871,–,> 100000,29.3,percentage of compound concentration (prodrug remaining) ([4]; time 0 min): 100.00%; percentage of compound concentration (prodrug remaining) ([4]; time 30 min): 53.6%; percentage of compound concentration (prodrug remaining) ([4]; time 60 min): 29.7%; percentage of compound concentration (prodrug remaining) ([4]; time 120 min): 7.4%; percentage of compound concentration (prodrug remaining) ([4]; time 240 min): 0.4%; percentage of compound concentration (prodrug remaining) ([4]; time 360 min): 0.0%; percentage of compound concentration (prodrug remaining) ([4]; time 480 min): 0.0%
Nc1ccc(-c2cn(Cc3ccc(-c4nnc(C(F)F)o4)s3)nn2)cn1 [Compound 49-A],29,–,–,–,–
